Reference: patent US5681738A, “Use of 10-oxo-trans-8-decenoic acid in mushroom cultivation” (The Penn State Research Foundation, priority 1992, dated 1997)

Test system: separated upper stipes of Agaricus bisporus
Assay: Elongation of separated upper stipes on test agar containing ODA, storage at 12° C.
Parameters: species or system Agaricus bisporus (hybrid off-white)
Experimental: Four type strains of mushrooms were used: the white, off-white, hybrid white (U3) and hybrid off-white (U1). Mushrooms from each flush were harvested before the veil was broken. Freshly harvested mushrooms were transported within about one hour after harvest to Borland Laboratory and placed in the pilot plant cold room (4° C.) for about two hours before sampling. Mushrooms were sorted on the basis of size and appearance. Diseased, damaged, misshapen, veil-opened and extremely large or small mushrooms (>40 or <25 mm in cap diameter) were discarded. Mushrooms of uniform size (25-40 mm) and maturity of the button stage (stage 1, veil intact tightly) were used in this research.
Whole stipes were cut at the lower portions to a length of 7-9 mm to standardize the sample, and marked at the middle of the veil, which is the location where the veil attaches to the stipe, to indicate the upper and lower stipes. The separated stipes contained 2-4 mm of upper stipes and 5-6 nun of lower stipes. For the study using separated upper stipes, mushrooms were dissected directly into upper stipes with a length of 3-5 mm. The separated stipes or upper stipes were put upside down on the test agar containing various mushroom supernatants or ODA concentrations; i.e., the upper sides in contact with the agar surface (FIG. 12). All petri dishes were covered and stored at 12° C. The length of separated stipes and upper stipes was measured using a vernier caliper before and after certain days of storage.
Sterile ODA solutions were aseptically added into the autoclaved agar solutions to achieve the desired final ODA concentrations. The agar solution was then dispensed into dishes, ca 20.8 mL per dish. The level of ODA tested included 10^-4, 10^-5, 10^-6, 10^-7, and 10^-8 M. Mushrooms (hybrid off-white) from 6 different crops were used to study their postharvest growth. In the first 2 experiments, mushroom stipes were measured after 4-day storage at 12° C. In order to prevent stipe deterioration and desiccation of the test agar, in the following experiments mushroom stipes were measured after 3-day storage at 12° C.
The experimental data were subjected to a single classification analysis of variance (AOV) for a completely randomized design (Steele et al., 1980). Fisher's protected least significant difference (LSD) was applied to separate the means. The level of significance used in this research was 0.05.
Since the upper stipe was the major portion which responded to crude preparations of ODA, the following experiment used only upper stipes and applied pure ODA solns to the test agar. Because desiccation of the test agar sometimes occurred after 4 days of storage, in the third replication of this experiment and in subsequent experiments, the stipes were measured after 3 days of storage.

O=C/C=C/CCCCCCC(=O)O [ODA, 10-oxo-trans-8-decenoic acid]
% Elongation of upper stipes (ODA 10^-4 M (18.4 ppm), rep 1, 4-day storage, control 34.3): 34.8%
% Elongation of upper stipes (ODA 10^-4 M (18.4 ppm), rep 2, 4-day storage, control 33.3): 40.1%
% Elongation of upper stipes (ODA 10^-4 M (18.4 ppm), rep 3, 3-day storage, control 20.5): 17.7%
% Elongation of upper stipes (ODA 10^-5 M (1.84 ppm), rep 1, 4-day storage, control 34.3): 35.5%
% Elongation of upper stipes (ODA 10^-5 M (1.84 ppm), rep 2, 4-day storage, control 33.3): 36.5%
% Elongation of upper stipes (ODA 10^-5 M (1.84 ppm), rep 3, 3-day storage, control 20.5): 19.3%
% Elongation of upper stipes (ODA 10^-6 M (0.184 ppm), rep 1, 4-day storage, control 34.3): 39.9%
% Elongation of upper stipes (ODA 10^-6 M (0.184 ppm), rep 2, 4-day storage, control 33.3): 35.7%
% Elongation of upper stipes (ODA 10^-6 M (0.184 ppm), rep 3, 3-day storage, control 20.5): 16.6%
% Elongation of upper stipes (ODA 10^-7 M (0.0184 ppm), rep 1, 4-day storage, control 34.3): 41.0%
% Elongation of upper stipes (ODA 10^-7 M (0.0184 ppm), rep 2, 4-day storage, control 33.3): 42.3%
% Elongation of upper stipes (ODA 10^-7 M (0.0184 ppm), rep 3, 3-day storage, control 20.5): 18.1%
% Elongation of upper stipes (ODA 10^-8 M (0.00184 ppm), rep 1, 4-day storage, control 34.3): 30.1%
% Elongation of upper stipes (ODA 10^-8 M (0.00184 ppm), rep 2, 4-day storage, control 33.3): 39.6%
% Elongation of upper stipes (ODA 10^-8 M (0.00184 ppm), rep 3, 3-day storage, control 20.5): 15.8%
elongation of upper stipes among treatments (in words) (pure ODA, upper stipes only): no differences
